In the supplement of paper PMC11061612:

Key:
Assay in all cases: Bliss excess, mean over the matrix (fraction); higher = more synergy
8-MG-BA (Glioblastoma) = tested on: 8-MG-BA (Glioblastoma)
Summary of the method: (§1)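 Cell lines grown in DMEM/F12 or RPMI with 10% FBS were plated in 1536-well plates and held 24 hours at 37°C, 5% CO2 before 72 hours of exposure to two-drug dose matrices, with DMSO typically at 0.2%. CellTiter-Glo 2.0 luminescence gave viability, which was converted to inhibition. Vehicle wells were set to 0 and blank wells to 1. Combination Emax is the second-highest inhibition in the matrix, and Bliss excess is the observed combination effect minus the expected EA + EB − EA·EB, where EA and EB are the single-agent effects.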

[1] = tested on: A3-KAW (B-Cell Non-Hodgkin's Lymphoma)
Summary of the method: as §1

[2] = tested on: A549 (Lung Adenocarcinoma)
Summary of the method: as §1

CAS-1 (Glioblastoma) = tested on: CAS-1 (Glioblastoma)
Summary of the method: as §1

[3] = tested on: CCK-81 (Colorectal Carcinoma)
Summary of the method: as §1

[4] = tested on: ECC10 (Gastric Carcinoma)
Summary of the method: as §1

FU97 (Gastric Carcinoma) = tested on: FU97 (Gastric Carcinoma)
Summary of the method: as §1

[5] = tested on: HCC1954 (Breast Carcinoma)
Summary of the method: as §1

Hs-445 (Non-Cancerous) = tested on: Hs-445 (Non-Cancerous)
Summary of the method: as §1

[6] = tested on: JSC-1 (B-Cell Non-Hodgkin's Lymphoma)
Summary of the method: as §1

[7] = tested on: MDST8 (Colorectal Carcinoma)
Summary of the method: as §1

[8] = tested on: NCI-H1581 (Non-Small Cell Lung Carcinoma)
Summary of the method: as §1

[9] = tested on: NCI-H2141 (Small Cell Lung Carcinoma)
Summary of the method: as §1

NCI-H2591 (Mesothelioma) = tested on: NCI-H2591 (Mesothelioma)
Summary of the method: as §1

NY (Osteosarcoma) = tested on: NY (Osteosarcoma)
Summary of the method: as §1

[10] = tested on: SK-MG-1 (Low Grade Glioma)
Summary of the method: as §1

[11] = tested on: TT (Thyroid Gland Carcinoma)
Summary of the method: as §1

[12] = tested on: TT2609-C02 (Thyroid Gland Carcinoma)
Summary of the method: as §1

U-2-OS (Osteosarcoma) = tested on: U-2-OS (Osteosarcoma)
Summary of the method: as §1

[13] = tested on: VCaP (Prostate Carcinoma)
Summary of the method: as §1

SMILES	Bliss excess (8-MG-BA (Glioblastoma))	Bliss excess [1]	Bliss excess [2]	Bliss excess (CAS-1 (Glioblastoma))	Bliss excess [3]	Bliss excess [4]	Bliss excess (FU97 (Gastric Carcinoma))	Bliss excess [5]	Bliss excess (Hs-445 (Non-Cancerous))	Bliss excess [6]	Bliss excess [7]	Bliss excess [8]	Bliss excess [9]	Bliss excess (NCI-H2591 (Mesothelioma))	Bliss excess (NY (Osteosarcoma))	Bliss excess [10]	Bliss excess [11]	Bliss excess [12]	Bliss excess (U-2-OS (Osteosarcoma))	Bliss excess [13]
COc1nnc2ccc(N3CCC(c4ccc(OCCN5CCN(C)C(=O)[C@H]5C)cc4)CC3)nn12 [AZD5153] + C[C@@H]1COCCN1C2=NC(=NC(=C2)C3(CC3)[S@](=N)(=O)C)C4=C5C=CNC5=NC=C4 [AZD6738] (first compound max 1 µM, 7x7, partner max 10 µM)	-0.0849	-0.006	-0.0292	0.0116	0.0184	0.0654	0.0043	0.0323	-0.0475	-0.067	0.0544	0.0013	0.043	0.0634	-0.0188	-0.0065	0.0167	0.0179	0.0409	-0.0521
COc1nnc2ccc(N3CCC(c4ccc(OCCN5CCN(C)C(=O)[C@H]5C)cc4)CC3)nn12 [AZD5153] + Cc1c2c(nn1C)CSCc1cc(n(C)n1)CSc1cc(c3ccccc3c1)OCCCc1c(C(=O)O)n(C)c3c-2c(Cl)ccc13 [AZD5991] (first compound max 1 µM, 7x7, partner max 1 µM)	-0.0367	-0.0289	-0.0918	-0.0333	-0.0485	0.0743	0.0934	0.0771	-0.0723	-0.0542	0.0069	-0.0739	0.0096	-0.0657	-0.0656	-0.0383	-0.0291	-0.0295	0.0074	-0.0242
COc1nnc2ccc(N3CCC(c4ccc(OCCN5CCN(C)C(=O)[C@H]5C)cc4)CC3)nn12 [AZD5153] + Cn1cnc2c(F)c(Nc3ccc(Br)cc3Cl)c(C(=O)NOCCO)cc21 [Selumetinib] (first compound max 1 µM, 7x7, partner max 10 µM)	-0.007	0.0182	-0.0703	-0.0548	0.0649	0.0419	-0.0254	-0.0118	-0.0232	-0.0165	0.0646	-0.0141	-0.0277	-0.0065	-0.005	-0.0443	-0.0018	-0.0074	-0.0291	-0.059
Cc1c2c(nn1C)CSCc1cc(n(C)n1)CSc1cc(c3ccccc3c1)OCCCc1c(C(=O)O)n(C)c3c-2c(Cl)ccc13 [AZD5991] + C1CN(CCC1(C(=O)N[C@@H](CCO)C2=CC=C(C=C2)Cl)N)C3=NC=NC4=C3C=CN4 [Capivasertib] (first compound max 1 µM, 7x7, partner max 3 µM)	0.0821	0.0236	-0.0312	-0.0094	0.0555	0.0934	-0.0174	0.0559	-0.0545	-0.0085	-0.0102	-0.0048	0.0003	-0.0306	0.0079	0.0354	-0.0499	-0.019	0.0114	0.0545
Cc1c2c(nn1C)CSCc1cc(n(C)n1)CSc1cc(c3ccccc3c1)OCCCc1c(C(=O)O)n(C)c3c-2c(Cl)ccc13 [AZD5991] + C=CCn1c(=O)c2cnc(Nc3ccc(N4CCN(C)CC4)cc3)nc2n1-c1cccc(C(C)(C)O)n1 [AZD1775] (first compound max 1 µM, partner max 1 µM)	-0.0123	0.0126	-0.0488	0.0452	-0.0116	0.0696	0.0503	0.0435	0.0139	-0.0042	0.0087	-0.0365	-0.0145	0.0396	-0.0177	0.0333	0.007	0.0087	0.0183	-0.011
Cc1c2c(nn1C)CSCc1cc(n(C)n1)CSc1cc(c3ccccc3c1)OCCCc1c(C(=O)O)n(C)c3c-2c(Cl)ccc13 [AZD5991] + CC1(C)CCC(CN2CCN(c3ccc(C(=O)NS(=O)(=O)c4ccc(NCC5CCOCC5)c([N+](=O)[O-])c4)c(Oc4cnc5[nH]ccc5c4)c3)CC2)=C(c2ccc(Cl)cc2)C1 [Venetoclax] (first compound max 1 µM, 7x7, partner max 1 µM)	0.048	0.0191	-0.0642	-0.0284	0.0362	0.277	-0.0525	0.0401	0.0357	0.0155	-0.0359	-0.0061	0.107	-0.0252	0.0232	-0.0221	0.0887	-0.0069	-0.0011	-0.0351
Cc1c2c(nn1C)CSCc1cc(n(C)n1)CSc1cc(c3ccccc3c1)OCCCc1c(C(=O)O)n(C)c3c-2c(Cl)ccc13 [AZD5991] + CN(C)CCCOc1ccc(-c2ccc3ncc4c(c3c2)n(C2CCOCC2)c(=O)n4C)cn1 [AZD0156] (first compound max 1 µM, 7x7, partner max 1 µM)	0.0044	-0.0252	-0.026	0.0497	0.0379	-0.0158	-0.058	0.0247	-0.106	-0.0081	0.0114	0.0383	-0.0146	0.0036	0.0299	0.0058	-0.071	0.0199	0.0132	0.0034
